Data on 21 molecules can be found in patent publication US20250346592A1 (Celgene Corporation, priority 2022, published 2025).

Bounds are passed on as bounds.

Experiment [1] addresses T1, hPAD4 enzyme (Homo sapiens (Human), UniProt Q9UM07). The experiment can be described thus: RFMS1 assay (RapidFire mass spectrometry, BAEE substrate). It counts as biochemical. The following applies: 5 nM hPAD4, 250 μM BAEE, 30 min preincubation at 37° C., 90 min reaction; read-out: RFMS 1 IC50. Summed up: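 hPAD4 (5 nM) preincubated 30 min at 37° C. with compound, then 250 μM BAEE for 90 min at 37° C. in pH 7.5 HEPES buffer with 50 μM calcium, 1 mM DTT, 5 μM TPEN. TCA quench, phenyl glyoxal derivatisation; citrulline product measured by RapidFire MS, normalised to internal standard; IC50 values.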

Experiment [2] concerns the target T1, hPAD4 enzyme. The experiment can be described thus: RFMS2 assay (RapidFire mass spectrometry, TSTGGRQGSHH peptide substrate). The following applies: 35 nM recombinant human PAD4, 500 μM TSTGGRQGSHH peptide, 30 minutes at room temperature; read-out: RFMS 2 IC50. It counts as biochemical. Summed up: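 Recombinant human PAD4 (35 nM) with 500 μM TSTGGRQGSHH peptide in HEPES pH 7.4, 200 mM NaCl, 2 mM CaCl2, 5 mM DTT, 1.2% DMSO, 30 min at room temperature; 3-fold compound series, top 20 μM. Quenched with formic acid; substrate and citrullinated product quantified by RapidFire MRM mass spectrometry for IC50.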

T1 sequence (Q9UM07 whole entry): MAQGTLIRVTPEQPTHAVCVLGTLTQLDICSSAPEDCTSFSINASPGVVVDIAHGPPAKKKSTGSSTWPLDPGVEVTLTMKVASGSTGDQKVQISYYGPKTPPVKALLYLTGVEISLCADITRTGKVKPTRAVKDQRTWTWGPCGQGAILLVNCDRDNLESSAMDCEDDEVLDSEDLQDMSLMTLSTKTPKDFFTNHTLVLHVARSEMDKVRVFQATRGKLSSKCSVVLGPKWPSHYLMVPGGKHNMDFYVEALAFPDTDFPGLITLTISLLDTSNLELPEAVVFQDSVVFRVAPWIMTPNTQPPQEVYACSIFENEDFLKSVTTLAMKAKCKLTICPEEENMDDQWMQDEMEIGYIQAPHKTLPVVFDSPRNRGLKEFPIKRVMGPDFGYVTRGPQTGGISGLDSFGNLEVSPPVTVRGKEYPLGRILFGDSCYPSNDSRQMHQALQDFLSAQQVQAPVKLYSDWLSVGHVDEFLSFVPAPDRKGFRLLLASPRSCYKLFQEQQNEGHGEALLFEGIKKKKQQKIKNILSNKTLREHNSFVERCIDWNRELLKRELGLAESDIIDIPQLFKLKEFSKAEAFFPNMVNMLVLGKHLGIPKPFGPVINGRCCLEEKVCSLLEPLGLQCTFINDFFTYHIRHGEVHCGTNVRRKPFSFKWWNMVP

On to `Cn1c(-c2cc3cccc(OCCc4c[nH]nn4)c3n2CC2CC2)nc2cc3c(cc21)CCN(C[C@H](N)CF)C3=O` [Example 199, (S)-2-(7-(2-(1H-1,2,3-triazol-4-yl)ethoxy)-1-(cyclopropyl-methyl)-1H-indol-2-yl)-6-(2-amino-3-fluoropropyl)-1-methyl-1,6,7,8-tetrahydro-5H-imidazo[4,5-g]isoquinolin-5-one], for which the IC50 at hPAD4 enzyme [1] was no more than 10 nM; at hPAD4 enzyme [2], 11 to 100 nM.
In the case of `COC(=O)N(C)CCOc1cccc2cc(-c3nc4cc5c(cc4n3C)CCN(C[C@H](N)CF)C5=O)n(CC3CC3)c12` [Example 201, methyl (S)-(2-((2-(6-(2-amino-3-fluoropropyl)-1-methyl-5-oxo-5,6,7,8-tetrahydro-1H-imidazo[4,5-g]isoquinolin-2-yl)-1-(cyclopropylmethyl)-1H-indol-7-yl)oxy)ethyl)(methyl) carbamate], the concentration for half-maximal inhibition (IC50) on hPAD4 enzyme [1] was no more than 10 nM; at hPAD4 enzyme [2], 101 to 500 nM.
Regarding `CC[C@@H](N)CN1CCc2cc3c(cc2C1=O)nc(-c1cc2ccccc2n1CC1CC1)n3C` [Example 9, (R)-6-(2-aminobutyl)-2-(1-(cyclopropylmethyl)-1H-indol-2-yl)-1-methyl-1,6,7,8-tetrahydro-5H-imidazo[4,5-g]isoquinolin-5-one], the IC50 at hPAD4 enzyme [1] is 501 to 1000 nM; at hPAD4 enzyme [2], 101 to 500 nM.
As to `COc1cccc2cc(-c3nc4cc5c(cc4n3C)CCN(C[C@H](N)CF)C5=O)n(Cc3cc(N)no3)c12` [Example 146, (S)-6-(2-amino-3-fluoropropyl)-2-(1-((3-aminoisoxazol-5-yl)methyl)-7-methoxy-1H-indol-2-yl)-1-methyl-1,6,7,8-tetrahydro-5H-imidazo[4,5-g]isoquinolin-5-one], the 50% inhibitory concentration (IC50) at hPAD4 enzyme [1] was 11 to 100 nM; on hPAD4 enzyme [2], 101 to 500 nM.
As for `Cn1c(-c2cc3cccc(OCCc4ccno4)c3n2CC2CC2)nc2cc3c(cc21)CCN(C[C@H](N)CF)C3=O` [Example 195, (S)-6-(2-amino-3-fluoropropyl)-2-(1-(cyclopropylmethyl)-7-(2-(isoxazol-5-yl)ethoxy)-1H-indol-2-yl)-1-methyl-1,6,7,8-tetrahydro-5H-imidazo[4,5-g]isoquinolin-5-one], the results for the IC50 on hPAD4 enzyme [1] and on hPAD4 enzyme [2] were no more than 10 nM and 11 to 100 nM, respectively.
For `C[C@@H](N)CN1CCc2cc3c(cc2C1=O)nc(-c1cc2ccccc2n1CC1CC1)n3C` [Example 5, (R)-6-(2-aminopropyl)-2-(1-(cyclopropylmethyl)-1H-indol-2-yl)-1-methyl-1,6,7,8-tetrahydro-5H-imidazo[4,5-g]isoquinolin-5-one] the same measures were 101 to 500 nM and 101 to 500 nM.
For `CN[C@H](C)CN1CCc2cc3c(cc2C1=O)nc(-c1cc2cccc(OCC4CNC(=O)C4)c2n1CC1CC1)n3C` (stereo partly drawn) [Example 229, 2-(1-(cyclopropylmethyl)-7-((5-oxopyrrolidin-3-yl)methoxy)-1H-indol-2-yl)-1-methyl-6-((R)-2-(methylamino)propyl)-1,6,7,8-tetrahydro-5H-imidazo[4,5-g]isoquinolin-5-one], the half-inhibitory concentration (IC50) on hPAD4 enzyme [1] lay in the range of 501 to 1000 nM; at hPAD4 enzyme [2] it was 101 to 500 nM.
On to `Cn1c(-c2cc3ccccc3n2CC2CC2)nc2cc3c(cc21)CCN(C[C@H](N)CF)C3=O` [Example 12, (S)-6-(2-amino-3-fluoropropyl)-2-(1-(cyclopropylmethyl)-1H-indol-2-yl)-1-methyl-1,6,7,8-tetrahydro-5H-imidazo[4,5-g]isoquinolin-5-one], for which the concentration for half-maximal inhibition (IC50) on hPAD4 enzyme [1] and at hPAD4 enzyme [2] was 101 to 500 nM throughout.
In the case of `COC1CCN(c2ccc3cc(-c4nc5cc6c(cc5n4C)CCN(C[C@H](N)CF)C6=O)n(CC4CC4)c3c2)CC1` [Example 68, (S)-6-(2-amino-3-fluoropropyl)-2-(1-(cyclopropylmethyl)-6-(4-methoxypiperidin-1-yl)-1H-indol-2-yl)-1-methyl-1,6,7,8-tetrahydro-5H-imidazo[4,5-g]isoquinolin-5-one], the IC50 at hPAD4 enzyme [1] is 11 to 100 nM; on hPAD4 enzyme [2], greater than 1000 nM.
Turning to `COc1cc(F)cc2cc(-c3nc4cc5c(cc4n3C)CCN(C[C@H](N)CF)C5=O)n(CC3CC3)c12` [Example 65, (S)-6-(2-amino-3-fluoropropyl)-2-(1-(cyclopropylmethyl)-5-fluoro-7-methoxy-1H-indol-2-yl)-1-methyl-1,6,7,8-tetrahydro-5H-imidazo[4,5-g]isoquinolin-5-one], the IC50 was in the range of 11 to 100 nM at hPAD4 enzyme [1] and 101 to 500 nM at hPAD4 enzyme [2].
As for `CN1CC(COc2cccc3cc(-c4nc5cc6c(cc5n4C)CCN(C[C@H](N)CF)C6=O)n(CC4CC4)c23)CC1=O` (stereo partly drawn) [Example 184, 6-((S)-2-amino-3-fluoropropyl)-2-(1-(cyclopropylmethyl)-7-((1-methyl-5-oxopyrrolidin-3-yl)methoxy)-1H-indol-2-yl)-1-methyl-1,6,7,8-tetrahydro-5H-imidazo[4,5-g]isoquinolin-5-one], the IC50 at hPAD4 enzyme [1] lay in the range of 11 to 100 nM; at hPAD4 enzyme [2], 101 to 500 nM.
For `Cn1c(-c2cc3cccc(OCCn4cnnn4)c3n2CC2CC2)nc2cc3c(cc21)CCN(C[C@H](N)CF)C3=O` [Example 186, (S)-2-(7-(2-(1H-tetrazol-1-yl)ethoxy)-1-(cyclopropylmethyl)-1H-indol-2-yl)-6-(2-amino-3-fluoropropyl)-1-methyl-1,6,7,8-tetrahydro-5H-imidazo[4,5-g]isoquinolin-5-one] the same measures were no more than 10 nM and 11 to 100 nM.
With `C[C@@H](Cn1ccnc1)Oc1cccc2cc(-c3nc4cc5c(cc4n3C)CCN(C[C@H](N)CF)C5=O)n(CC3CC3)c12` [Example 222, 2-(7-(((S)-1-(1H-imidazol-1-yl)propan-2-yl)oxy)-1-(cyclopropylmethyl)-1H-indol-2-yl)-6-((S)-2-amino-3-fluoropropyl)-1-methyl-1,6,7,8-tetrahydro-5H-imidazo[4,5-g]isoquinolin-5-one], the IC50 on hPAD4 enzyme [1] lay in the range of 11 to 100 nM; on hPAD4 enzyme [2], 101 to 500 nM.
Regarding `Cc1nccn1CCOc1cccc2cc(-c3nc4cc5c(cc4n3C)CCN(C[C@H](N)CF)C5=O)n(CC3CC3)c12` [Example 165, (S)-6-(2-amino-3-fluoropropyl)-2-(1-(cyclopropyl-methyl)-7-(2-(2-methyl-1H-imidazol-1-yl)ethoxy)-1H-indol-2-yl)-1-methyl-1,6,7,8-tetrahydro-5H-imidazo [4,5-g]isoquinolin-5-one], the IC50 at hPAD4 enzyme [1] lay within 11 to 100 nM; on hPAD4 enzyme [2], 101 to 500 nM.
The corresponding values for `Cc1cccc2cc(-c3nc4cc5c(cc4n3C)CCN(C[C@H](N)CF)C5=O)n(CC3CC3)c12` [Example 48, (S)-6-(2-amino-3-fluoropropyl)-2-(1-(cyclopropylmethyl)-7-methyl-1H-indol-2-yl)-1-methyl-1,6,7,8-tetrahydro-5H-imidazo[4,5-g]isoquinolin-5-one] are 101 to 500 nM and 101 to 500 nM.
The corresponding values for `COc1cccc2cc(-c3nc4cc5c(cc4n3C)CCN(C[C@H](N)CF)C5=O)n(Cc3cc(C)no3)c12` [Example 113, (S)-6-(2-amino-3-fluoropropyl)-2-(7-methoxy-1-((3-methylisoxazol-5-yl)methyl)-1H-indol-2-yl)-1-methyl-1,6,7,8-tetrahydro-5H-imidazo[4,5-g]isoquinolin-5-one] are 11 to 100 nM and 101 to 500 nM.
As to `Cn1c(-c2cc3cccc(OCCn4ccnn4)c3n2CC2CC2)nc2cc3c(cc21)CCN(C[C@H](N)CF)C3=O` [Example 181, (S)-2-(7-(2-(1H-1,2,3-triazol-1-yl)ethoxy)-1-(cyclopropylmethyl)-1H-indol-2-yl)-6-(2-amino-3-fluoropropyl)-1-methyl-1,6,7,8-tetrahydro-5H-imidazo[4,5-g]isoquinolin-5-one], the half-inhibitory concentration (IC50) on hPAD4 enzyme [1] is no more than 10 nM; on hPAD4 enzyme [2], 11 to 100 nM.
`COc1cccc2cc(-c3nc4cc5c(cc4n3C)CCN(C[C@H](N)CF)C5=O)n(CC3CC3)c12` [Example 53, (S)-6-(2-amino-3-fluoropropyl)-2-(1-(cyclopropylmethyl)-7-methoxy-1H-indol-2-yl)-1-methyl-1,6,7,8-tetrahydro-5H-imidazo[4,5-g]isoquinolin-5-one]: the results for the concentration for half-maximal inhibition (IC50) on hPAD4 enzyme [1] and at hPAD4 enzyme [2] were 11 to 100 nM and 101 to 500 nM, respectively.
On to `Cn1c(-c2cc3ccccc3n2CC2CC2)nc2cc3c(cc21)CCN(CC(C)(C)N)C3=O` [Example 6, 6-(2-amino-2-methyl-propyl)-2-[1-(cyclopropylmethyl)indol-2-yl]-1-methyl-7,8-dihydroimidazo[4,5-g]isoquinolin-5-one], for which the IC50 at hPAD4 enzyme [1] and on hPAD4 enzyme [2] was greater than 1000 nM each time.
Consider `Cn1c(-c2cc3cccc(OCCO)c3n2CC2CC2)nc2cc3c(cc21)CCN(C[C@H](N)CF)C3=O` [Example 205, (S)-6-(2-amino-3-fluoropropyl)-2-(1-(cyclopropylmethyl)-7-(2-hydroxyethoxy)-1H-indol-2-yl)-1-methyl-1,6,7,8-tetrahydro-5H-imidazo[4,5-g]isoquinolin-5-one], for which the IC50 at hPAD4 enzyme [1] lay within 11 to 100 nM; at hPAD4 enzyme [2], 101 to 500 nM.
In the case of `Cn1c(-c2cc3cccc(OCCc4cnoc4)c3n2CC2CC2)nc2cc3c(cc21)CCN(C[C@H](N)CF)C3=O` [Example 204, (S)-6-(2-amino-3-fluoropropyl)-2-(1-(cyclopropylmethyl)-7-(2-(isoxazol-4-yl)ethoxy)-1H-indol-2-yl)-1-methyl-1,6,7,8-tetrahydro-5H-imidazo[4,5-g]isoquinolin-5-one], the concentration for half-maximal inhibition (IC50) was no more than 10 nM at hPAD4 enzyme [1] and 11 to 100 nM on hPAD4 enzyme [2].
